# Assay results taken from publication PMC9230590, “Pharmacokinetics and Tissue Distribution of Enavogliflozin in Mice and Rats” (Pharmaceutics, 2022).
# “And” between values parts separate entries of the source, which are not always exact repeats. Identical values can stand only once. Like-named read-outs stand apart in the source and are kept apart here.
# What was measured:
# [1] = Pharmacokinetics after oral administration in rats; assay type: in vivo, Sprague Dawley (SD) rats; conditions: for AUC∞/D / Cmax/D: dose normalized; for Cmax/D: in (ng/mL)/(mg/kg); for AUC(0-t) / AUC(0-inf) / Cmax / half-life / MRT / Tmax / bioavailability: rat, plasma; for bioavailability: po
# Experimental: Rats were fasted with water ad libitum for at least 12 h before the oral administration of enavogliflozin. Eighteen rats were randomly divided into three groups (n = 6 per each group) and administered the drug dissolved in a mixture of 10% DMSO and 90% saline at doses of 0.3, 1, and 3 mg/kg by oral gavage. Blood samples were collected at 0, 0.083, 0.25, 0.5, 1, 2, 4, 6, 8, and 24 h with the same procedures described above.
# (§1) Concentrations of enavogliflozin in plasma and tissue homogenate samples were analyzed using an Agilent 6430 triple quadrupole liquid chromatography-mass spectrometry (LC–MS/MS) system (Agilent, Wilmington, DE, USA) following a previously published method.
# (§2) The data were expressed as the means ± standard deviation for the groups. Pharmacokinetic parameters, such as the area under the plasma concentration–time curve during the period of observation (AUClast), AUC to infinite time (AUC∞), clearance (CL), and volume of distribution at steady-state (Vd,ss), the terminal half-life (t1/2), and mean residence time (MRT) were calculated using non-compartment analysis with WinNonlin software (version 5.1; Pharsights, Cary, NC, USA). The AUC ratios were calculated by dividing the AUClast of enavogliflozin in the tissue samples by the plasma AUClast values of enavogliflozin [15].
# [2] = design: method as in PMID 32183468; conditions: mice; cited from earlier work
# [3] = Recovery from urine and feces over 72 h in mice; assay type: in vivo, ICR mice; conditions: for Recovery, Feces / Recovery, Urine: parent form
# Experimental: Three mice received enavogliflozin (1 mg/kg) intravenously and were returned to metabolic cages with food and water ad libitum and urine and feces samples were collected every 24 h for 72 h. Urine and feces were weighed, and 30 µL aliquots of urine and 50 µL aliquots of 10% feces homogenates were stored at −80 °C until enavogliflozin analysis. Four mice received enavogliflozin (1 mg/kg) by oral gavage and were returned to their metabolic cages to collect urine and feces samples every 24 h for 72 h with the same protocols described above.
# as §1
# Aliquots of plasma or urine (30 µL each) and tissue homogenate (50 µL each) were added to 100 µL of aqueous solution of d4-enavogliflozin (IS, 20 ng/mL), and vigorously mixed with 500 µL MTBE for 15 min. After centrifugation at 16,000× g for 5 min, samples were kept for 1 h, at a temperature of −80 °C to freeze the aqueous layer freeze. The organic upper layer was then transferred to a clean tube and evaporated to dryness under a gentle stream of nitrogen. The dried extract was reconstituted in 150 µL of mobile phase, and a 3 µL aliquot was injected into the LC–MS/MS system. Enavogliflozin was separated on a Synergi Polar RP column (2.0 × 150 mm, 4 µm particle size; Phenomenex, Torrence, CA, USA) using a isocratic mobile phase consisting of water (15%) and methanol (85%) containing 0.1% formic acid at a flow rate of 0.25 mL/min.
# [4] = test system: hepatocytes; design: method as in PMID 32932946; conditions: monkey hepatocytes; cited from earlier work
# [5] = test system: hepatocytes; design: method as in PMID 32932946; conditions: rat hepatocytes; cited from earlier work
# [6] = Tissue distribution after single or repeated oral administration (7 or 14 days) in mice; assay type: in vivo, ICR mice; conditions: for Kp / AUC(0-t): ICR, mouse, po, 1 mg/kg; for Kp: read-out: AUC Ratio (AUC48 h, tissue / AUC48 h, plasma); for AUC(0-t): plasma, read-out: AUC48 h; for AUC48 h: oral 1 mg/kg
# Experimental: Thirty-five ICR mice were randomly divided into five groups (n = 7 per sampling time point) and administered with an enavogliflozin solution (1 mg/kg, once daily) for 14 days via oral gavage. Another thirty-five ICR mice were randomly divided into five groups (n = 7 per sampling time point) and administered with an enavogliflozin solution (1 mg/kg, once daily) for 7 days via oral gavage. The other thirty-five ICR mice were randomly divided into five groups (n = 7 per sampling time point) and administered with an enavogliflozin solution at a dose of 1 mg/kg via oral gavage. Blood samples (approximately 0.2 mL) were collected at 1, 2, 8, 24, and 48 h via the abdominal artery. Subsequently, whole tissues, including kidney, liver, small intestine, and large intestine, were isolated. An aliquot (30 µL) of plasma and aliquots (50 µL) of tissue homogenate samples were prepared and stored with the same procedures described above.
# as §1, §2
# [7] = test system: hepatocytes; design: method as in PMID 32932946; conditions: human cells (hepatocytes); cited from earlier work
smiles,measurement,setting,value
"OC[C@H]1O[C@@H](c2cc(Cc3ccc(C4CC4)cc3)c(Cl)c3c2CCO3)[C@H](O)[C@@H](O)[C@@H]1O [enavogliflozin, (2S,3R,4R,5S,6R)-2-(7-chloro-6-(4-cyclopropylbenzyl) -2,3-dihydrobenzofuran-4-yl)-6-(hydroxymethyl)tetrahydro-2H-pyran-3,4,5-triol]",AUC∞/D,[1]; PO 0.3 mg/kg,1757.6 ± 643.4
same,Cmax/D,[1]; PO 0.3 mg/kg,171.2 ± 49.9
same,AUC∞/D,[1]; PO 1 mg/kg,1649.3 ± 483.4
same,Cmax/D,[1]; PO 1 mg/kg,183.0 ± 95.6
same,AUC∞/D,[1]; PO 3 mg/kg,1385.4 ± 361.8
same,Cmax/D,[1]; PO 3 mg/kg,100.2 ± 36.1
same,AUC(0-t),"[1]; Sprague Dawley, PO 0.3 mg/kg",489 ± 192 ng·h/mL
same,AUC(0-t),"[1]; Sprague Dawley, PO 1 mg/kg",1350 ± 565 ng·h/mL
same,AUC(0-inf),"[1]; Sprague-Dawley, PO 0.3 mg/kg",527 ± 193 ng·h/mL
same,Cmax,"[1]; Sprague-Dawley, PO 0.3 mg/kg",51.3 ± 15 ng/mL
same,half-life,"[1]; Sprague-Dawley, PO 0.3 mg/kg",6.3 ± 2.3 h
same,AUC(0-inf),"[1]; Sprague-Dawley, PO 1 mg/kg",1650 ± 483 ng·h/mL
same,Cmax,"[1]; Sprague-Dawley, PO 1 mg/kg",183 ± 95.6 ng/mL
same,half-life,"[1]; Sprague-Dawley, PO 1 mg/kg",6.9 ± 2.1 h
same,AUC(0-inf),"[1]; Sprague-Dawley, PO 3 mg/kg",4160 ± 1090 ng·h/mL
same,AUC(0-t),"[1]; Sprague-Dawley, PO 3 mg/kg",3250 ± 572 ng·h/mL
same,Cmax,"[1]; Sprague-Dawley, PO 3 mg/kg",301 ± 108 ng/mL
same,half-life,"[1]; Sprague-Dawley, PO 3 mg/kg",10.3 ± 7.5 h
same,MRT,"[1]; Sprague-Dawley, PO 0.3 mg/kg",8.5 ± 3.2 h
same,Tmax,"[1]; Sprague-Dawley, PO 0.3 mg/kg",2.5 ± 2.4 h
same,MRT,"[1]; Sprague-Dawley, PO 1 mg/kg",9.9 ± 3.6 h
same,Tmax,"[1]; Sprague-Dawley, PO 1 mg/kg",2.5 ± 2.5 h
same,MRT,"[1]; Sprague-Dawley, PO 3 mg/kg",14.9 ± 10.6 h
same,Tmax,"[1]; Sprague-Dawley, PO 3 mg/kg",2.9 ± 2.1 h
same,bioavailability,"[1]; Sprague-Dawley, 0.3 mg/kg, PO 0.3 mg/kg, AUC∞,PO / AUC∞,IV, read-out: BA (absolute bioavailability)",62.1%
same,bioavailability,"[1]; Sprague-Dawley, 1 mg/kg, PO 1 mg/kg, AUC∞,PO / AUC∞,IV, read-out: BA (absolute bioavailability)",58.9%
same,bioavailability,"[1]; Sprague-Dawley, 3 mg/kg, PO 3 mg/kg, AUC∞,PO / AUC∞,IV, read-out: BA (absolute bioavailability)",56.3%
same,bioavailability,"[1]; Sprague-Dawley, 3 mg/kg, range over doses 0.3, 1 and 3 mg/kg, read-out: Oral bioavailability",56.3 to 62.1%
same,ratio of AUC in kidney to AUC in plasma,[2],85.0 ± 16.1
same,Recovery in feces relative to urine,[3]; 1 mg/kg IV,about 6 fold
same,"Recovery, Feces","[3]; 1 mg/kg IV, 0–24 h, 1 mg/kg",36.3 % of Dose and 36.3 ± 3.6 % of Dose
same,"Recovery, Urine","[3]; 1 mg/kg IV, 0–24 h, 1 mg/kg",6.3 % of Dose and 6.3 ± 0.8 % of Dose
same,"Recovery, Feces","[3]; 1 mg/kg IV, 0–72 h, 1 mg/kg",39.3 ± 3.5 % of Dose and 39.3 % of Dose
same,"Recovery, Urine","[3]; 1 mg/kg IV, 0–72 h, 1 mg/kg",6.6 ± 0.7 % of Dose and 6.6 % of Dose
same,"Recovery, Feces","[3]; 1 mg/kg IV, 24–48 h",2.7 ± 1.3 % of Dose
same,"Recovery, Urine","[3]; 1 mg/kg IV, 24–48 h",0.1 ± 0.0 % of Dose
same,"Recovery, Feces","[3]; 1 mg/kg IV, 48–72 h",0.4 ± 0.1 % of Dose
same,"Recovery, Feces","[3]; 1 mg/kg PO, 0–24 h",50.6 ± 11.1 % of Dose
same,"Recovery, Urine","[3]; 1 mg/kg PO, 0–24 h",6.6 ± 0.6 % of Dose
same,"Recovery, Urine","[3]; 1 mg/kg PO, 0–72 h",6.8 ± 0.6 % of Dose
same,"Recovery, Feces","[3]; 1 mg/kg PO, 0–72 h, 1 mg/kg",51.4 % of Dose and 51.4 ± 11.5 % of Dose
same,"Recovery, Feces","[3]; 1 mg/kg PO, 24–48 h",0.72 ± 0.4 % of Dose
same,"Recovery, Urine","[3]; 1 mg/kg PO, 24–48 h",0.1 ± 0.0 % of Dose
same,"Recovery, Feces","[3]; 1 mg/kg PO, 48–72 h",0.2 ± 0.1 % of Dose
same,dose excreted,"[3]; ICR, mouse, urine and feces, 1 mg/kg IV, 72 h, read-out: total recovery (feces + urine)",~46%
same,In vitro hepatic clearance,[4],18.5 mL/min/kg
same,In vitro hepatic clearance,[5],8.3 mL/min/kg
same,Kp,"[6]; kidney, repeated dose for 7 days, kidney",37.6 ± 5.9
same,Kp,"[6]; kidney, repeated dose for 14 days, kidney",38.4 ± 18
same,Kp,"[6]; kidney, single dose, kidney",38.7 ± 6.3
same,Kp,"[6]; large intestine, repeated dose for 7 days, large intestine",2.33 ± 0.34
same,Kp,"[6]; large intestine, repeated dose for 14 days, large intestine",2.2 ± 0.71
same,Kp,"[6]; large intestine, single dose, large intestine",3.24 ± 1.1
same,Kp,"[6]; liver, repeated dose for 7 days, liver",3.77 ± 0.73
same,Kp,"[6]; liver, repeated dose for 14 days, liver",4.37 ± 2.6
same,Kp,"[6]; liver, single dose, liver",4.85 ± 0.64
same,AUC(0-t),[6]; repeated dose for 7 days,2090 ± 290 ng·h/mL
same,AUC(0-t),[6]; repeated dose for 14 days,2360 ± 690 ng·h/mL
same,AUC(0-t),[6]; single dose,2130 ± 270 ng·h/mL
same,Kp,"[6]; small intestine, repeated dose for 7 days, small intestine",4.5 ± 0.89
same,Kp,"[6]; small intestine, repeated dose for 14 days, small intestine",3.4 ± 1.5
same,Kp,"[6]; small intestine, single dose, small intestine",3.47 ± 0.49
same,AUC48 h,"[6]; repeated dose for 7 days, kidney",77.2 ± 6.3 µg·h/g
same,AUC48 h,"[6]; repeated dose for 7 days, large intestine",4.88 ± 1.1 µg·h/g
same,AUC48 h,"[6]; repeated dose for 7 days, liver",7.89 ± 2.1 µg·h/g
same,AUC48 h,"[6]; repeated dose for 7 days, small intestine",9.39 ± 2.1 µg·h/g
same,AUC48 h,"[6]; repeated dose for 14 days, kidney",81.6 ± 4.8 µg·h/g
same,AUC48 h,"[6]; repeated dose for 14 days, large intestine",4.90 ± 1.5 µg·h/g
same,AUC48 h,"[6]; repeated dose for 14 days, liver",8.85 ± 1.8 µg·h/g
same,AUC48 h,"[6]; repeated dose for 14 days, small intestine",7.46 ± 2.3 µg·h/g
same,AUC48 h,"[6]; single dose, kidney",80.9 ± 5.1 µg·h/g
same,AUC48 h,"[6]; single dose, large intestine",5.68 ± 1.6 µg·h/g
same,AUC48 h,"[6]; single dose, liver",10.2 ± 1.0 µg·h/g
same,AUC48 h,"[6]; single dose, small intestine",7.30 ± 0.77 µg·h/g
same,In vitro hepatic clearance,[7],4.5 mL/min/kg
